Entries after “also recorded” stand apart in the source; their conditions may differ. Like-named read-outs stand apart in the source and are kept apart here.
Test system: human peripheral blood lymphocytes (mononuclear cells)
Experimental: Mononuclear Cell Isolation: For this purpose 5 ml of freshly drawn heparinized blood was layered on 3.0 ml of Histopaque in a 15 ml polypropylene centrifuge tube and centrifuged at room temperature for 20 minutes at 1,000 g. The mononuclear cell layer was then removed from the tube and transferred into a new 15-ml tube. Volume was brought to a total of 5 ml by addition of Hanks buffered salt solution lacking Mg and Ca (HBSS). This suspension of cells was again layered onto 3.0 ml of Histopaque and again centrifuged as before.
Resuspension of the centrifuged cells in 12-ml HBSS was repeated three times, each followed by 10 min centrifugation at a lower g of 250 g, 50 g, and 50 g to remove contaminating platelets which carry substantial PPi.
After decanting the supernatant, the cell pellet was resuspended in 1.0 ml of HBSS for counting in a hemocytometer. After counting, the cell suspension was spun for 10 minutes in a microfuge at 14,000 rpm. After decanting and thoroughly removing the supernatant, 3.0 μl of 0.1 M sodium […] (an alkaline phosphatase inhibitor) were added and the cells were lysed by addition of 100 μl of 1% triton X-100 and vortexing. The lysate is then stored frozen at −20° C. until time of assay.
PPi Assay: The assay of PPi in mononuclear cells in Tables 1 and 2 were done by the luminescent methods (Barshop, B A et al. Analyt Biochem (1991) 197:266-272). […] Each sample was assayed in duplicate and in the presence and absence of added pyrophosphate as a recovery test.
Volunteer two was an adult volunteer who had just been scheduled by the same internist to start the same medication for their hypertension.

Compound: COc1ccc([C@@H]2Sc3ccccc3N(CCN(C)C)C(=O)[C@@H]2OC(C)=O)cc1 [diltiazem]
- effect on intracellular concentration of pyrophosphate (PPi) (mononuclear cells of peripheral blood, result in words): lowers the intracellular concentration of pyrophosphate (PPi); also recorded: comparable lowering of mononuclear cells in one of two patients
- PPi (subject one (chondrocalcinosis), diltiazem 60 mg/day taken for only one day, collection 03/13/91): 241 pmole/10^6 cells
- PPi (subject one (chondrocalcinosis), diltiazem 60 mg/day, collection 05/16/91): 128 pmole/10^6 cells
- PPi (subject three (chondrocalcinosis), diltiazem 60 mg/day, collection 09/11/91): 343 pmole/10^6 cells
